Source: ChEMBL document CHEMBL4304811, “Development of a Water-Soluble Indolylmaleimide Derivative IM-93 Showing Dual Inhibition of Ferroptosis and NETosis” (ACS Med Chem Lett, 2019)

Tests used:
[1] = molecular target: RAC-gamma serine/threonine-protein kinase (Homo sapiens) (UniProt Q9Y243); assay: Binding affinity to wild-type human partial length AKT3 expressed in bacterial expression system assessed as residual binding level at 10 uM by Kinomescan method relative to control
[2] = molecular target: Tyrosine-protein kinase receptor UFO (Homo sapiens) (UniProt P30530); assay: Binding affinity to wild-type human partial length AXL (R497 to Y821 residues) expressed in bacterial expression system assessed as residual binding level at 10 uM by Kinomescan method relative to control
[3] = molecular target: Macrophage colony-stimulating factor 1 receptor (Homo sapiens) (UniProt P07333); assay: Binding affinity to wild-type human partial length CSF1R (I564 to S939 residues) expressed in bacterial expression system assessed as residual binding level at 10 uM by Kinomescan method relative to control
[4] = system: Epidermal growth factor receptor (Homo sapiens), P00533 [L858R]; assay: Binding affinity to human partial length EGFR L858R mutant (R669 to V1011 residues) expressed in bacterial expression system assessed as residual binding level at 10 uM by Kinomescan method relative to control
[5] = molecular target: Ephrin type-A receptor 5 (Homo sapiens) (UniProt P54756); assay: Binding affinity to wild-type human partial length EPHA5 (T627 to V930 residues) expressed in bacterial expression system assessed as residual binding level at 10 uM by Kinomescan method relative to control
[6] = molecular target: Ephrin type-B receptor 1 (Homo sapiens) (UniProt P54762); assay: Binding affinity to wild-type human partial length EPHB1 (P589 to T911 residues) expressed in bacterial expression system assessed as residual binding level at 10 uM by Kinomescan method relative to control
[7] = molecular target: Mitogen-activated protein kinase 15 (Homo sapiens) (UniProt Q8TD08); assay: Binding affinity to wild-type human partial length ERK8 (M1 to P437 residues) expressed in bacterial expression system assessed as residual binding level at 10 uM by Kinomescan method relative to control
Mitogen-activated protein kinase 15 (Homo sapiens), sequence (Q8TD08 whole entry, the tested form may be a part): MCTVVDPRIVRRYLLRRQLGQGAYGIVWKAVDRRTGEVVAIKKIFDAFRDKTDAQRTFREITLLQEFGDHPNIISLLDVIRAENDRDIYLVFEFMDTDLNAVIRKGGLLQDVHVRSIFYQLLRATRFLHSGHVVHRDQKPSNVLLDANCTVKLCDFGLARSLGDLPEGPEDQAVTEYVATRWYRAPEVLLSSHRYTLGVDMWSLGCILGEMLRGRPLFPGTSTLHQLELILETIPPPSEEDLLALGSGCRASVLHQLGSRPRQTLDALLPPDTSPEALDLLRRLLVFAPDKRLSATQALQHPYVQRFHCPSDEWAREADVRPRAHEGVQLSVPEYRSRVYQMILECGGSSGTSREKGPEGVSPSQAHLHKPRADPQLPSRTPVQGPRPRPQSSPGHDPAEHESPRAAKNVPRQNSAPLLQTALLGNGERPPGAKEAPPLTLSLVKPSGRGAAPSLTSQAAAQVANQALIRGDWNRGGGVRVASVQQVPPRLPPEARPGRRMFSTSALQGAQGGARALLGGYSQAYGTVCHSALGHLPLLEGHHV

[8] = system: Receptor-type tyrosine-protein kinase FLT3 (Homo sapiens), P36888 [N841I]; assay: Binding affinity to human partial length FLT3 N841I mutant (V592 to Y969 residues) expressed in bacterial expression system assessed as residual binding level at 10 uM by Kinomescan method relative to control
[9] = molecular target: Glycogen synthase kinase-3 beta (Homo sapiens) (UniProt P49841); assay: Binding affinity to wild-type human full length GSK3B (M1 to T433 residues) expressed in mammalian expression system assessed as residual binding level at 10 uM by Kinomescan method relative to control
Glycogen synthase kinase-3 beta (Homo sapiens), sequence (P49841 whole entry, looked up, the tested form may be a part): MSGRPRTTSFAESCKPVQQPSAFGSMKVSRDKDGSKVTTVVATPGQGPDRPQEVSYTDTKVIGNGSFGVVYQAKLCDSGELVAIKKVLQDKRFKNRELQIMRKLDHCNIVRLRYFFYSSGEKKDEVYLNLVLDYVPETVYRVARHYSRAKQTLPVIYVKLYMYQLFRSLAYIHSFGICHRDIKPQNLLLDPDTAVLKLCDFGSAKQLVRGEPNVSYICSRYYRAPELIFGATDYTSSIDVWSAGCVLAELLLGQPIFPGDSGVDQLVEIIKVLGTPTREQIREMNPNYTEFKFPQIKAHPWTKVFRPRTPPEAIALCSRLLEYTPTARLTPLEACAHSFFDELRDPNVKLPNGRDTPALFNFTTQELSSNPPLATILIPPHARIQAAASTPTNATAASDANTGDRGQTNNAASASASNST

[10] = molecular target: Tyrosine-protein kinase Lck (Homo sapiens) (UniProt P06239); assay: Binding affinity to wild-type human partial length LCK (R207 to P509 residues) expressed in bacterial expression system assessed as residual binding level at 10 uM by Kinomescan method relative to control
Tyrosine-protein kinase Lck (Homo sapiens), sequence (P06239 2-509 limits assumed): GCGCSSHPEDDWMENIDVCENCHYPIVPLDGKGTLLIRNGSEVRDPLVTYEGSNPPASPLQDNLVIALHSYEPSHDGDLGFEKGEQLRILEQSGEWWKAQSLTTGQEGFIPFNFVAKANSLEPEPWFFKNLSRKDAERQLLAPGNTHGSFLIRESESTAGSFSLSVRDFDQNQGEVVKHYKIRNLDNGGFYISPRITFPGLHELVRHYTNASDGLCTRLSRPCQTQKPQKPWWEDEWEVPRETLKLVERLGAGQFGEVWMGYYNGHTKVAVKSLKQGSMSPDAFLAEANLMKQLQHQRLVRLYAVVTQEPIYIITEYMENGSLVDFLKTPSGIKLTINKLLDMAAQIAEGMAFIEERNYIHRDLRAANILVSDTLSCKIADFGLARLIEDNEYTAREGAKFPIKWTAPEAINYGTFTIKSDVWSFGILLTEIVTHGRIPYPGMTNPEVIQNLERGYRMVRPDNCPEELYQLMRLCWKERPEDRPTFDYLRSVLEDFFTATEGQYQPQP

[11] = molecular target: Mitogen-activated protein kinase kinase kinase kinase 2 (Homo sapiens) (UniProt Q12851); assay: Binding affinity to wild-type human partial length MAP4K2 (M1 to G318 residues) expressed in mammalian expression system assessed as residual binding level at 10 uM by Kinomescan method relative to control
[12] = molecular target: Mitogen-activated protein kinase kinase kinase 11 (Homo sapiens) (UniProt Q16584); assay: Binding affinity to wild-type human partial length MLK3 (I77 to W399 residues) expressed in bacterial expression system assessed as residual binding level at 10 uM by Kinomescan method relative to control
Mitogen-activated protein kinase kinase kinase 11 (Homo sapiens), sequence (Q16584 whole entry, looked up, the tested form may be a part): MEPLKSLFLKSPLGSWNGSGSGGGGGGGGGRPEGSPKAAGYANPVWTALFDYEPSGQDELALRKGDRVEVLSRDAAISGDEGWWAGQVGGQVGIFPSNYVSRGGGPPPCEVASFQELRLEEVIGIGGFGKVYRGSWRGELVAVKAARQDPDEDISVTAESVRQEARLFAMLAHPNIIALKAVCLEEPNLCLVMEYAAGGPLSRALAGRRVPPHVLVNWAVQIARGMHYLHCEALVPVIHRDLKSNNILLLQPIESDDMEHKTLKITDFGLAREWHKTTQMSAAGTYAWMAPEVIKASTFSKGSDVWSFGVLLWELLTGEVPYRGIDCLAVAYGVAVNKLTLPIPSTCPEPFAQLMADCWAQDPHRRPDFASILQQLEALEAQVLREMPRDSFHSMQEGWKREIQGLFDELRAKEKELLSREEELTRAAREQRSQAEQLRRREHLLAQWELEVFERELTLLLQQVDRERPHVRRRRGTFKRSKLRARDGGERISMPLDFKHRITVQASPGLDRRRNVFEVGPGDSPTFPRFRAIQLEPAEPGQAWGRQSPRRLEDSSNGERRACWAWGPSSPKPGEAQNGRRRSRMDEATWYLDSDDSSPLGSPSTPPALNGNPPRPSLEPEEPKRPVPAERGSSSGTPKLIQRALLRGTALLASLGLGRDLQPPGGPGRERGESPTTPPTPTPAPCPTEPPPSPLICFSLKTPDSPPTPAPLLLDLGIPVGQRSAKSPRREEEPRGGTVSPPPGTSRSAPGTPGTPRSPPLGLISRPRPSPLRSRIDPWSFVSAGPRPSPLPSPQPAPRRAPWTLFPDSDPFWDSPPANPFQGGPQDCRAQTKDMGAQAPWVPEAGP

[13] = molecular target: Macrophage-stimulating protein receptor (Homo sapiens) (UniProt Q04912); assay: Binding affinity to wild-type human partial length MST1R (I1057 to L1363 residues) expressed in bacterial expression system assessed as residual binding level at 10 uM by Kinomescan method relative to control
[14] = molecular target: Serine/threonine-protein kinase PAK 3 (Homo sapiens) (UniProt O75914); assay: Binding affinity to wild-type human full length PAK3 (M1 to R544 residues) expressed in bacterial expression system assessed as residual binding level at 10 uM by Kinomescan method relative to control
[15] = molecular target: Serine/threonine-protein kinase PAK 5 (Homo sapiens) (UniProt Q9P286); assay: Binding affinity to wild-type human partial length PAK7 (Y400 to H719 residues) expressed in bacterial expression system assessed as residual binding level at 10 uM by Kinomescan method relative to control
[16] = molecular target: Phosphatidylinositol 5-phosphate 4-kinase type-2 beta (Homo sapiens) (UniProt P78356); assay: Binding affinity to wild-type human full length PIP5K2B (M1 to T416 residues) expressed in bacterial expression system assessed as residual binding level at 10 uM by Kinomescan method relative to control
[17] = molecular target: Serine/threonine-protein kinase D2 (Homo sapiens) (UniProt Q9BZL6); assay: Binding affinity to wild-type human partial length PRKD2 (A519 to E838 residues) expressed in bacterial expression system assessed as residual binding level at 10 uM by Kinomescan method relative to control
[18] = molecular target: Interferon-induced, double-stranded RNA-activated protein kinase (Homo sapiens) (UniProt P19525); assay: Binding affinity to wild-type human partial length PRKR (F247 to C551 residues) expressed in bacterial expression system assessed as residual binding level at 10 uM by Kinomescan method relative to control
[19] = molecular target: Ribosomal protein S6 kinase alpha-2 (Homo sapiens) (UniProt Q15349); assay: Binding affinity to wild-type human partial length N- terminal RSK3 kinase domain 1 (M1 to Q385 residues) expressed in bacterial expression system assessed as residual binding level at 10 uM by Kinomescan method relative to control
[20] = molecular target: Ribosomal protein S6 kinase alpha-6 (Homo sapiens) (UniProt Q9UK32); assay: Binding affinity to wild-type human partial length C-terminal RSK4 kinase domain 2 (I401 to Y711 residues) expressed in bacterial expression system assessed as residual binding level at 10 uM by Kinomescan method relative to control
Ribosomal protein S6 kinase alpha-6 (Homo sapiens), sequence (Q9UK32 whole entry, the tested form may be a part): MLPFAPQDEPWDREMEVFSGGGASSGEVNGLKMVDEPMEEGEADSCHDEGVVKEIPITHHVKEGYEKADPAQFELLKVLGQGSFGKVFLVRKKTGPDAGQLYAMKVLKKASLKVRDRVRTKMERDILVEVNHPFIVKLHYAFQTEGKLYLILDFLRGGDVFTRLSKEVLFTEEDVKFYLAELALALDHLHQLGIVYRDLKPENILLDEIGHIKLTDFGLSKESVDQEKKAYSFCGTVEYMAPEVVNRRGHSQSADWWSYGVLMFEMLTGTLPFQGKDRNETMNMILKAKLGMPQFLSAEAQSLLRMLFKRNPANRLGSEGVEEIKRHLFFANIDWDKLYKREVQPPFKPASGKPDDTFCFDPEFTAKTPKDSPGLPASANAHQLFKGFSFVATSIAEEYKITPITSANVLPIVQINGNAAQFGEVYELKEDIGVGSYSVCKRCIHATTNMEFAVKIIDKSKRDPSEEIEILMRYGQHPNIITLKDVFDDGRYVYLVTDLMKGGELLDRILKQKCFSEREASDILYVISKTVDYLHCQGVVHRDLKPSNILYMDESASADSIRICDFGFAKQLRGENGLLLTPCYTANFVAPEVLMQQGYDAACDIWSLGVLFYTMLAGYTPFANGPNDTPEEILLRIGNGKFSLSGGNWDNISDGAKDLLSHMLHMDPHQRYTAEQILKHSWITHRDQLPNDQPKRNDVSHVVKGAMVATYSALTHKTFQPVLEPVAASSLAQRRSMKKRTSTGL

[21] = molecular target: SRSF protein kinase 1 (Homo sapiens) (UniProt Q96SB4); assay: Binding affinity to wild-type human full length SRPK1 (M1 to S655 residues) expressed in bacterial expression system assessed as residual binding level at 10 uM by Kinomescan method relative to control
[22] = molecular target: SRSF protein kinase 2 (Homo sapiens) (UniProt P78362); assay: Binding affinity to wild-type human full length SRPK2 (M1 to S686 residues) expressed in bacterial expression system assessed as residual binding level at 10 uM by Kinomescan method relative to control
SRSF protein kinase 2 (Homo sapiens), sequence (P78362 whole entry, looked up, the tested form may be a part): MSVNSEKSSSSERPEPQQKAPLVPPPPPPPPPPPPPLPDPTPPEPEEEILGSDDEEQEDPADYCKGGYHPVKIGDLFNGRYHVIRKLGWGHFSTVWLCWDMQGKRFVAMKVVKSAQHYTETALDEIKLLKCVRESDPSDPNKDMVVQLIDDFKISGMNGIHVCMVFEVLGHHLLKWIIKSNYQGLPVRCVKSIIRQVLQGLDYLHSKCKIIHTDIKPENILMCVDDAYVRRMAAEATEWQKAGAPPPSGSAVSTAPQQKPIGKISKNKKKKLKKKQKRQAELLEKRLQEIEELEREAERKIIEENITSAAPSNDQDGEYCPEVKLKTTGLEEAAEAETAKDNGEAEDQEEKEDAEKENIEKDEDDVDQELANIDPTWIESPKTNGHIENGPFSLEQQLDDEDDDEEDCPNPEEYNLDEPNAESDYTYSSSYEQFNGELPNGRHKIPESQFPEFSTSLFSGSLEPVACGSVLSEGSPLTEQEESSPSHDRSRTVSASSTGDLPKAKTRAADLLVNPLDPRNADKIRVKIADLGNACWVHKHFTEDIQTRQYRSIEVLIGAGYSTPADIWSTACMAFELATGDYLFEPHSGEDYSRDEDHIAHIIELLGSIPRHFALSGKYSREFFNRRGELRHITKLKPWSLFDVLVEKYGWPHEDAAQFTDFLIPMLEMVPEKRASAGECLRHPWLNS

[23] = molecular target: Dual specificity testis-specific protein kinase 1 (Homo sapiens) (UniProt Q15569); assay: Binding affinity to wild-type human full length TESK1 (R37 to S626 residues) expressed in bacterial expression system assessed as residual binding level at 10 uM by Kinomescan method relative to control
[24] = molecular target: Serine/threonine-protein kinase tousled-like 1 (Homo sapiens) (UniProt Q9UKI8); assay: Binding affinity to wild-type human partial length TLK1 (K447 to A754 residues) expressed in bacterial expression system assessed as residual binding level at 10 uM by Kinomescan method relative to control
Serine/threonine-protein kinase tousled-like 1 (Homo sapiens), sequence (Q9UKI8 whole entry, the tested form may be a part): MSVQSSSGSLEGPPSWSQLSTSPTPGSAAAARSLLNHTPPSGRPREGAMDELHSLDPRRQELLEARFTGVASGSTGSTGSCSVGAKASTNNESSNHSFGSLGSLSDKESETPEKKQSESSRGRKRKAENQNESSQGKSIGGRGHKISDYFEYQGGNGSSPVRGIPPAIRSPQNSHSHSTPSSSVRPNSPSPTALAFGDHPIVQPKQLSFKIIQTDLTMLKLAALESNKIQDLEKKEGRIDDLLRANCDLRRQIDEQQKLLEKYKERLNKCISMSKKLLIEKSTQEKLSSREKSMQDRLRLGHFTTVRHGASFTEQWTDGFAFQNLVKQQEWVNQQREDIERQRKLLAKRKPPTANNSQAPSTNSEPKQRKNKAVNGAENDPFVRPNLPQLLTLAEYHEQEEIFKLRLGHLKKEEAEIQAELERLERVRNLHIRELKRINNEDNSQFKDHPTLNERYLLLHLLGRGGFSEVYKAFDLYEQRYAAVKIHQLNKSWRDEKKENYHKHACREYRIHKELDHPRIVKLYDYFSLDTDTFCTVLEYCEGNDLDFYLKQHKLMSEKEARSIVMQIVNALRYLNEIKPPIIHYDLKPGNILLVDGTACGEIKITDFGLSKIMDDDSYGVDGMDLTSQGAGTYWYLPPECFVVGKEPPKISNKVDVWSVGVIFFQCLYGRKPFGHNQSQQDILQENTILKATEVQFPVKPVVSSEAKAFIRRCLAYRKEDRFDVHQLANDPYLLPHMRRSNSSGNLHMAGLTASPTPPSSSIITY

NIH3T3 = assay: Inhibition of TBHP-induced ferroptosis in mouse NIH/3T3 cells after 12 hrs by WST-8 assay; type: functional, cell-based; conditions: NIH3T3, 12 h

RAC-gamma serine/threonine-protein kinase (Homo sapiens), sequence (Q9Y243 whole entry, the tested form may be a part): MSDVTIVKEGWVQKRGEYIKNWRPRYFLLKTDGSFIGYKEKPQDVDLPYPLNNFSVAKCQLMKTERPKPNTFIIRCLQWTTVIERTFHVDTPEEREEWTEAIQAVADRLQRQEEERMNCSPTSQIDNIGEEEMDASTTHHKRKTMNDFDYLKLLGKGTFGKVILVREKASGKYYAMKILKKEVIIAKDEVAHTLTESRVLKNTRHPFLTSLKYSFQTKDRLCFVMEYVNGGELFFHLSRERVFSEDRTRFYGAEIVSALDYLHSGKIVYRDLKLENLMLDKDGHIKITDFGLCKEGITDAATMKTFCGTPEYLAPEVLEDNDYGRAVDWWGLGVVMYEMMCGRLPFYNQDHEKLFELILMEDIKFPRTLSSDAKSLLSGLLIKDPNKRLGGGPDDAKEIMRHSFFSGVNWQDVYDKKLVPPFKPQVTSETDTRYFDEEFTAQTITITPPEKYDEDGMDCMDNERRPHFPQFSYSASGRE

With `CC(C)N1C(=O)C(NCCCN(C)C)=C(c2cn(C)c3ccccc23)C1=O.Cl` the Activity [1] was 99%, the Activity [2] was 99% and the Activity [3] was 97%. It also gave an Activity [4] of 82%, an Activity [5] of 96% and an Activity [6] of 99%. The Activity [7] was 95%, the Activity [8] was 100% and the Activity [9] was 84%. The Activity [10] was 92%, the Activity [11] was 85% and the Activity [12] was 91%. It also gave an Activity [13] of 100%, an Activity [14] of 100% and an Activity [15] of 100%. For the same molecule, the Activity [16] was 100%, the Activity [17] was 93% and the Activity [18] was 100%. The Activity [19] was 100%, the Activity [20] was 100% and the Activity [21] was 83%. For the same molecule, the Activity [22] was 100%, the Activity [23] was 82% and the Activity [24] was 100%. It also gave an IC50 (NIH3T3) of 1800 nM.
